Assay results taken from patent US4918012A (Kyowa Hakko Kogyo Co., Ltd., priority 1986, dated 1990).

Assays:
strain CA28-50A = test: Effect of compound added to growth medium on carnitinamide hydrolase formation (Example 9); format: cell-based, Pseudomonas sp. CA28-50A; conditions: 26° C.; for Conversion Rate of L-carnitinamide into L-carnitine: cells reacted with 10% DL-carnitinamide, 96 hours; for Growth (optical density at 660, 1.00 cm, 20 times dilution): strain CA28-50A, 3 days
Procedure: In a medium consisting of 1% glucose, 0.5% peptone, 0.75% K2 HPO4, 0.25% KH2 PO4, 0.01% MgSO4.7H2 O, 0.001% FeSO4.7H2 O and one of the compounds shown in Table 6 below and the balance water (pH 7.2) was inoculated the strain CA28-50A and shake cultured at 26° C. for 3 days. Cells collected from the culture broth by centrifugation were suspended in a reaction solution containing 10% DL-carnitinamide in the same density as that in the medium for growth culture, and the resulting suspension was allowed to stand at 26° C. for 96 hours for the reaction.

[1] = tested on: L-carnitinamide hydrolase; test: Inhibitors of L-carnitinamide hydrolase (metal ions, EDTA, 2-mercaptoethanol); format: biochemical, Pseudomonas sp.
From the text: The determination of the activity of carnitinamide hydrolase can be carried out by measuring the amount of carnitine generated by, for example, Pearson's method (D. J. Pearson et al., Method in Enzymology, Vol. 14, 612 (1969)). When there is no inhibitory substances present, the determination of the activity of the enzyme can also be carried out by measuring the amount of ammonia generated by the reaction.

Structure (SMILES) | Inhibition of the enzyme ([1]; at 10 mM) | Inhibition of the enzyme ([1]; concentration of 1 mM) | also measured
C[N+](C)(C)CC(O)CC(N)=O (racemic) [DL-Carnitinamide] |  |  | Conversion Rate of L-carnitinamide into L-carnitine (strain CA28-50A; compound 0.5% in growth medium): 88.7%; Growth (optical density at 660, 1.00 cm, 20 times dilution) (strain CA28-50A; compound 0.5% in growth medium): 0.27
C[N+](C)(C)CC(O)CC(=O)[O-] (racemic) [DL-Carnitine] |  |  | Conversion Rate of L-carnitinamide into L-carnitine (strain CA28-50A; compound 0.5% in growth medium): 90.0%; Growth (optical density at 660, 1.00 cm, 20 times dilution) (strain CA28-50A; compound 0.5% in growth medium): 0.27
[Co+2] [Co] |  | no inhibition | 
Cl.N [NH4 Cl] |  |  | Conversion Rate of L-carnitinamide into L-carnitine (strain CA28-50A; compound 0.1% in growth medium): 2.9%; Growth (optical density at 660, 1.00 cm, 20 times dilution) (strain CA28-50A; compound 0.1% in growth medium): 0.23
[Ni+2] [Ni] | slight inhibition | no inhibition | 
C[N+](C)(C)CCCC(=O)[O-] [γ-Butyrobetaine] |  |  | Conversion Rate of L-carnitinamide into L-carnitine (strain CA28-50A; compound 0.5% in growth medium): 12.3%; Growth (optical density at 660, 1.00 cm, 20 times dilution) (strain CA28-50A; compound 0.5% in growth medium): 0.26

More lines, main results first:

Inhibition of the enzyme ([1]; at 10 mM) | Inhibition of the enzyme ([1]; concentration of 1 mM) | Structure (SMILES) | also measured
do not show inhibition | do not show inhibition | OCCS [2-mercaptoethanol] | 
remarkable inhibition | slight inhibition | [Ag+] [Ag ion] | 
do not show inhibition | do not show inhibition | O=C(O)CN(CCN(CC(=O)O)CC(=O)O)CC(=O)O [EDTA] | 
 | no inhibition | [Mg+2] [Mg] | 
 | no inhibition | [Mn+2] [Mn] | 
 | no inhibition | [Zn+2] [Zn] | 
